Consider four molecules from patent US20240226107A1, “UBIQUITIN-SPECIFIC PROTEASE 1 (USP1) INHIBITOR” (SIMCERE ZAIMING PHARMACEUTICAL CO., LTD., priority 2021, published 2024).

≈ marks a conversion by molar mass, not a printed value.

Usually IC50 stands for the concentration that gives 50% inhibition. As usually defined, the GI50 is the concentration giving 50% growth inhibition. For orientation: solubility means how much of the substance goes into solution per volume.

Data set [1] addresses USP1 (Recombinant Human His6-USP1/His6-UAF1 Complex Protein) (Homo sapiens (Human), UniProt O94782). Put plainly: In vitro activity assay for USP1 (Ub-CHOP2-Reporter deubiquitination assay). It counts as biochemical. Particulars: 0.5 h incubation at room temperature, read-out: In vitro inhibitory activity of USP1 IC50. Put shortly: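 His6-USP1/His6-UAF1 complex was mixed with compound in 20 mM Tris-HCl pH 8.0, 2 mM CaCl2, 2 mM β-mercaptoethanol and 0.05% CHAPS. Ub-CHOP2 reporter system plus substrate was added, then incubated 0.5 h at room temperature. IC50 came from a four-parameter logistic fit.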

Data set [2] concerns the target PXR (Homo sapiens (Human), UniProt O75469). As to the kind of experiment: Potential for PXR activation in DPX2 cells. It counts as cell-based. Particulars: 10 μM, versus 20 μM rifampicin. Here is the method: DMSO solutions of the compounds to be tested and the control compound rifampicin solution were prepared, and diluted with Puracyp dosing medium (Puracyp, Cat. No: D-500-100) at 37° C. to respective test concentrations. The final concentrations of the compounds to be tested were 30 μM, 10 μM, and 1 μM, respectively, and the final concentration of rifampicin was 20 μM. The final concentration of DMSO in the test solution was 0.1%. In addition, 0.1% DMSO solution prepared with Puracyp dosing medium was used as a control.
DPX2 cells were suspended in Puracyp Culture medium (Puracyp, Cat No.: C-500-100) at a cell density of 4.5×10^5 cell/mL. Then, the suspension was placed on a 96-well culture plate at 100 μL/well for incubation at 37° C. for 24 h. The medium in appropriate wells of the 96-well culture plate was replaced (three times per well) by 100 μL of solution of the compounds to be tested and a control compound solution. After replacement, the plate was incubated at 37° C. for 24 h. The medium was then replaced (three times per well) by a newly prepared test solution of the compounds to be tested and a rifampicin test solution, and the plate was incubated at 37° C. for 24 h.
The medium in the 96-well culture plate was pipetted and washed twice with PBS. To each well, 50 μL of reagent diluted as required by CellTiter-Fluor™ Cell Viability Assay Kit (Promega, Cat. No.: G6082) was added, and incubated at 37° C. for 0.5 h. The 96-well plate was cooled to room temperature, and the fluorescence value of each well at 505 nm was measured in a fluorescence mode with a microplate reader at an excitation wavelength of 400 nm. Then, 50 μL of reagent prepared as required by One-Glo Luciferase Assay System (Promega, Cat. No.: E6120) was added to each well, and the mixture was incubated at room temperature for 5 min. The luminescence value of each well was read by using a lumen meter.
Normalized luciferase activity was determined by RLU/RFU, and the RLU and RFU of the samples were mean values of duplicate wells, respectively.
[formula] • Fold of activation: fold of activation of normalized luciferase; • RLUtest: measured luminescence value of test wells at each test dose of test compounds; • RLUvehicle: measured luminescence value of test wells when tested with the control DMSO solution; • RFUtest: measured fluorescence value of test wells at each test dose of test compounds; • RFUvehicle: measured fluorescence value of test wells when tested with the control DMSO solution.
The percentage of positive control was calculated as follows:
% Positive control=(fold activationtest compound−1)/(fold activationpositive control compound−1)×100% • % Positive control: percentage of PXR activation compared with 20 μM rifampicin activation at each test dose of test compounds; • Fold activationtest compound: fold of activation of normalized luciferase at each test dose of test compounds; • Fold activationpositive control compound: fold of activation of normalized luciferase of test compounds under 20 μM rifampicin.

Data set [3] has as its system MDA-MB-436 cells.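 Note: MDA-MB-436 proliferation over 7 days with compound, viability read as ATP luminescence (CellTiter-Glo), inhibition relative to DMSO-only wells, day 0 signal as background, GI50 from four-parameter fit.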
Procedure: Assay based on CellTiter-Glo luminescent cell viability assay system.
The assay kit (CellTiter-Glo® Luminescent Cell Viability Assay) was purchased from Promega, with Cat. No. of G7573, and was stored at −30° C. after subpackage. The kit is a homogeneous assay method for assaying the number of viable cells in a culture based on quantitative determination of ATP. The kit produces a luminescence signal proportional to the amount of ATP present, and the amount of ATP is directly proportional to the number of cells in the culture.
The cultured cells were trypsinized, collected and centrifuged, then resuspended at an adjusted concentration in a culture solution (DMEM+10% FBS), and cultured overnight on a 384-well plate (400 cells/20 μl/well) in a cell incubator with 5% CO2 at 37° C. An ECHO instrument was used to added the compound and pure DMSO onto each well of the 384-well plate. The total volume of the compound and DMSO is 100 nL, and the instrument obtains gradient diluted sample concentrations through different ratios. To each well, 30 μL of culture solution was added, and after mixing by centrifugal oscillation and re-centrifugation, the cells were cultured in a cell incubator for 7 days (one column of cells was subjected to CTG assay on the day of dosing). After day 7, 25 μL of CTG assay solution was added to each well, and after mixing by centrifugal oscillation and re-centrifugation, the cells were placed at room temperature away from light for 10 min. In terms of chemiluminescence signals, an Envision plate reader (PerkinElmer, emission wavelength: 400-700 nm) was used to measure a signal in each well. The chemiluminescence value [RLU]cpd on day 7 was obtained for the treatment group, the chemiluminescence value [RLU]cell on day 7 was obtained for the non-treatment group (given DMSO only), and the chemiluminescence value [RLU]background on day 0 was obtained for the parallel non-treatment group (given DMSO only) by CTG assay on day 0. […] In the following equation, x represents the concentration of the compound in a logarithmic form; and F(x) represents an effect value (inhibition rate of proliferation at the concentration): F(x)=(A+((B−A)/(1+((C/x)^D)))). A, B, C, and D are four parameters.
Data set [4] in a line: Metabolic stability in vitro in rat hepatocytes. In kind it is in vitro ADME. Particulars: read-out: Intrinsic clearance. As to the method:
The concentration of each compound in the reaction system was measured by LC/MS/MS to calculate the intrinsic clearance of the compounds to be tested, and evaluate the metabolic stability in vitro in rat hepatocytes.
To the incubation plate, 198 μL of 0.5×10^6 cells/mL rat hepatocyte mixture and 2.0 μL of 100 μM compound to be tested or positive control were added to initiate reaction. Incubation was performed at 900 rpm at 37° C. […] Then the mixture was vortex-mixed for 5 min. […] Then 100 μL of supernatant of each compound was transferred to a 96-well sample plate, and 100 μL of purified water was added to dilute the sample. The resulting samples were quantified by ion chromatograms. The residual rate was calculated from peak areas of the compounds to be tested or the positive control. The slope k was determined using Microsoft Excel by linear regression of natural logarithm of the residual rate to the incubation time. The intrinsic clearance (in vitro CLint, μL/min/10^6 cells) was calculated from the slope value according to the following equation: […]

Data set [5] is described as follows: Metabolic stability in vitro in human hepatocytes. The conditions noted are these: read-out: Intrinsic clearance. It counts as in vitro ADME. Here is the method: The concentration of each compound in the reaction system was measured by LC/MS/MS to calculate the intrinsic clearance of the compounds to be tested, and evaluate the metabolic stability in vitro in human hepatocytes.
To the incubation plate, 198 μL of 0.5×10^6 cells/mL human hepatocyte mixture and 2.0 μL of 100 μM compound to be tested or positive control were added to initiate reaction. Incubation was performed at 900 rpm at 37° C. […] Then the mixture was vortex-mixed for 5 min. […] Then 100 μL of supernatant of each compound was transferred to a 96-well sample plate, and 100 μL of purified water was added to dilute the sample.
The resulting samples were quantified by ion chromatograms. The residual rate was calculated from peak areas of the compounds to be tested or the positive control. The slope k was determined using Microsoft Excel by linear regression of natural logarithm of the residual rate to the incubation time. The intrinsic clearance (in vitro CLint, μL/min/10^6 cells) was calculated from the slope value according to the following equation: […]

A short description of data set [6]: Solubility (PBS pH 7.4) of compounds from DMSO solution. It counts as physicochemical. Particulars: aqueous buffer, kinetic from dmso stock, 10 mM DMSO solution into PBS pH 7.4, 25° C., read-out: Calculated solubility. Here is the method: The solubility (PBS pH 7.4) of a compound to be tested was determined by LC/MS/MS. 6 μL of 10 mM DMSO solution of the compound to be tested was mixed with 194 μL of DMSO to prepare 300 μM compound solution. In 490 μL of water and acetonitrile (1:1) containing an internal standard, 5 μL of the solution and 5 μL of PBS pH 7.4 solution were mixed to prepare 3 μM standard concentration solution of the sample to be tested. The dilution factor of the standard solution can be adjusted according to the strength of response signals in LC/MS.
To 485 μL of PBS pH 7.4 solution, 15 μL of 10 mM DMSO solution of the compound to be tested was added. […] After shaking, the stir bar was removed, and the sample was transferred to a filter plate and filtered using a vacuum manifold. In 490 μL of water and acetonitrile (1:1) containing an internal standard, 5 μL of filtrate and 5 μL of PBS pH 7.4 solution were mixed to prepare a solution to be tested. The dilution factor can be adjusted according to the solubility value and the strength of response signals in LC/MS.
The resulting samples were determined by LC/MS/MS. The sample solubility was calculated from peak areas of the solution of the compound to be tested and the standard concentration solution, according to the following equation:
[formula] • [Sample] is the solubility of the sample to be tested; • Area ratiosample is the ratio of the peak area of sample in the sample to be tested to the peak area of the internal standard; • INJ VOL STD is the injection volume of the standard concentration solution; • DFsample is the dilution factor of the solution of the sample to be tested; • [STD] is the concentration of the standard concentration solution; • INJ VOLsample is the injection volume of the solution of the sample to be tested; and • Area ratio STD is the ratio of the peak area of sample in the standard concentration solution to the peak area of the internal standard.

USP1 (Recombinant Human His6-USP1/His6-UAF1 Complex Protein), sequence (O94782 whole entry): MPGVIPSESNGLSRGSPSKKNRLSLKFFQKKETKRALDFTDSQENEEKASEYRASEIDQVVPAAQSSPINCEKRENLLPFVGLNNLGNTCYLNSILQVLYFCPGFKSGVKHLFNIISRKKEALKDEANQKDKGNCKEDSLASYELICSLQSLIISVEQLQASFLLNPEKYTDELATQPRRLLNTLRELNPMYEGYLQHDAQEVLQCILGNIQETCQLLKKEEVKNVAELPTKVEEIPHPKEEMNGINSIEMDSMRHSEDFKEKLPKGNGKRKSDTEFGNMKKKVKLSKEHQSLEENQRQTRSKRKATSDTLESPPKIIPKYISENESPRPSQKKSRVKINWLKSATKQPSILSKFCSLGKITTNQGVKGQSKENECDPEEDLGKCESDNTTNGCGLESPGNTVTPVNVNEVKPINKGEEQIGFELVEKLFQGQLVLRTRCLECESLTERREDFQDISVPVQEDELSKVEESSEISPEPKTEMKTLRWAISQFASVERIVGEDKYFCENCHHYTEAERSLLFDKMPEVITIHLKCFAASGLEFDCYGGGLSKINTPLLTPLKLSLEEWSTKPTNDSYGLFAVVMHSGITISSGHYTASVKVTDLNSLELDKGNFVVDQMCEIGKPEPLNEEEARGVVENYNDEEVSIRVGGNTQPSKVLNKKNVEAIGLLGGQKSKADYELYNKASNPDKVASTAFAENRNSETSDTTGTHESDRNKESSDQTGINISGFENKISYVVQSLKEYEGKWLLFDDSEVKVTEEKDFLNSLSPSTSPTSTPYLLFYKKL
USP1 (Recombinant Human His6-USP1/His6-UAF1 Complex Protein), sequence (Q8TAF3 whole entry partner): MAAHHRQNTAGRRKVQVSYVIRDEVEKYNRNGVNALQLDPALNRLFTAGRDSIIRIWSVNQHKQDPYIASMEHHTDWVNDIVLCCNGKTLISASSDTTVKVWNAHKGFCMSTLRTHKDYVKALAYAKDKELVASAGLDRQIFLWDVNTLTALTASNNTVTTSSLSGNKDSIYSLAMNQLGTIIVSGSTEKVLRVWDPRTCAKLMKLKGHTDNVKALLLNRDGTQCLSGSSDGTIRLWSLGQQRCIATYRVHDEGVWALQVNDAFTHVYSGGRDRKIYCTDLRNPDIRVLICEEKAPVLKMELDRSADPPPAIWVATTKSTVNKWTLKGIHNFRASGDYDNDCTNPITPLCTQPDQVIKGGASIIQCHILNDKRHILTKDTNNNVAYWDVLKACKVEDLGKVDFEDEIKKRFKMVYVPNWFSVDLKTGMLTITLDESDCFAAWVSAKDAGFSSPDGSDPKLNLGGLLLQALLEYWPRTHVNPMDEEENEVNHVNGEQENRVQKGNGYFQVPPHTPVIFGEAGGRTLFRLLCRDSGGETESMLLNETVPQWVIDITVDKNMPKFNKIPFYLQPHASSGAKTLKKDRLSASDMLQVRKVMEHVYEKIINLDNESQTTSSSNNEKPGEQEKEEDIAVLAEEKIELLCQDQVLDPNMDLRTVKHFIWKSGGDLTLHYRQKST
PXR, sequence (O75469 whole entry): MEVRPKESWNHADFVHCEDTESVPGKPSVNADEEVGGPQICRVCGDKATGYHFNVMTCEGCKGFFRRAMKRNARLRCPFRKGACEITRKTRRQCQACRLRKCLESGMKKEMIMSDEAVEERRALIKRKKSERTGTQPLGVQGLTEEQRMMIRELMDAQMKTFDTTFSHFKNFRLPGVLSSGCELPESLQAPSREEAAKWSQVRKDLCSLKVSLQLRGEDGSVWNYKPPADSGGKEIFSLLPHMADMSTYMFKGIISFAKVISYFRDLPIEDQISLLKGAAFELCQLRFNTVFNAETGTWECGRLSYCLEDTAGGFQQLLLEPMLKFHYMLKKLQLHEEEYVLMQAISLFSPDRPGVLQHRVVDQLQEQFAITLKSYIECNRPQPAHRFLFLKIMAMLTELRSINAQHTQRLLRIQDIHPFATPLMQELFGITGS

For the molecule `COc1ncnc(C2CC2)c1-c1ncc2c(n1)N(Cc1ccc(-c3nc(C(F)(F)F)cn3C)cc1)C(=O)OC21CC1` [Compound 52, 7′-(4-cyclopropyl-6-methoxypyrimidin-5-yl)-1′-(4-(1-methyl-4-(trifluoromethyl)-1H-imidazol-2-yl)benzyl)spiro[cyclopropane-1,4′-pyrimido[4,5-d][1,3]oxazine]-2′(1′H)-one], the IC50 in data set [1] amounted to 23.2 nM. In data set [2], the “PXR activation (% Positive control)” value worked out at 20.9 % Positive control. The molecule also had a GI50 in data set [3] of 59.6 nM.

Regarding `COc1ncnc(C2CC2)c1-c1ncc2c(n1)N(Cc1ccc(-c3nc(C(F)(F)F)cn3C)cc1)C(=O)C(C)(C)O2` [Compound 22, 2-(4-cyclopropyl-6-methoxypyrimidin-5-yl)-6,6-dimethyl-8-(4-(1-methyl-4-(trifluoromethyl)-1H-imidazol-2-yl)benzyl)-6H-pyrimido[5,4-b][1,4]oxazin-7(8H)-one], in data set [1], the IC50 stood at 14.3 nM. Moreover, the hepatocyte CLint at 1 μM in data set [4] was determined as 6.4 µL/min/1e6 cells; in data set [5] it was 4.85 µL/min/1e6 cells. The molecule further came in with a GI50 in data set [3] of 19.9 nM.

`COc1ncnc(C2CC2)c1-c1ncc2c(n1)N(Cc1ccc(-n3nc(C(F)(F)F)cc3C)cc1)CC(=O)N2C` [Compound 43, 2-(4-cyclopropyl-6-methoxypyrimidin-5-yl)-5-methyl-8-(4-(5-methyl-3-(trifluoromethyl)-1H-pyrazol-1-yl)benzyl)-7,8-dihydropteridin-6(5H)-one]: in data set [1], the IC50 was found to be 22.6 nM. In addition, the “PXR activation (% Positive control)” value in data set [2] amounted to 3.2 % Positive control. In data set [3], the GI50 amounted to 32.6 nM.

`COc1ncnc(C2CC2)c1-c1ncc2c(n1)N(Cc1ccc3c(c1)CCCn1cc(C(F)(F)F)nc1-3)CC(=O)N2C` [Compound 45, 2-(4-cyclopropyl-6-methoxypyrimidin-5-yl)-5-methyl-8-((2-(trifluoromethyl)-6,7-dihydro-5H-benzo[c]imidazo[1,2-a]azepin-9-yl)methyl)-7,8-dihydropteridin-6(5H)-one]: the IC50 in data set [1] was determined as 19.9 nM. The hepatocyte CLint at 1 μM in data set [5] came out at 4.26 µL/min/1e6 cells. Besides, the solubility at 2 h in data set [6] is 88 µM (≈ 50.7 µg/mL). The 50% growth inhibitory concentration (GI50) in data set [3] was 53.2 nM.
